Laboratory results from PMC5931107, “Clinical pharmacodynamic/exposure characterisation of the multikinase inhibitor ilorasertib (ABT-348) in a phase 1 dose-escalation trial” (British Journal of Cancer, 2018).
Marks after values point to notes of the source that are not given here.

Assay: Plasma pharmacokinetics, Arm II (oral BID), phase 1 trial
Type: in vivo, human
Experimental: Pharmacokinetics of ilorasertib were evaluated in the dose-escalation cohort on blood samples that were collected on cycle 1 days 1 and 15. Parameters determined: Cmax, time to Cmax (Tmax), terminal phase elimination half-life (t1/2), clearance, apparent oral clearance (CL/F), and area under the plasma concentration-time curve from time 0 to time of last measurable concentration (AUCt) and from time 0 to infinity (AUC∞). For Arm I, blood samples were collected prior to dosing and at 0.5, 1, 2, 3, 4, 6, 8, 10 or 12, and 24 h after dosing on cycle 1 days 1 and 15; of note, for institutions not able to collect the 10- or 12-h post-dose sample, the 24-h sample was replaced with 22-h and 28-h post-dose samples. In Arm II, for the first dose, blood samples were collected pre-dose and at 1, 2, 3, and 4 h post-dose on cycle 1 days 1 and 15; for the second dose, samples were collected pre-dose and at 1, 2, 3, 4, 18, and 24 h after second dose on cycle 1 days 1 and 15. In Arm III, blood samples were collected prior to infusion, at 1 h 55 min (just before end of infusion), and at 0.5, 1, 2, 4, 6, 8, 10, and 24 h after end of infusion on cycle 1 days 1 and 15; here also, for institutions not able to collect the 8-h or 10-h after-end-of-infusion samples, the 24-h sample was replaced with 22-h and 28-h post-dose samples. The liquid chromatography (LC)-mass spectrometry (MS)/MS method was developed and validated in the Bioanalysis Department of AbbVie. Fifty microliter of human plasma (K2EDTA as anticoagulant) was fortified with 300 μL of deuterium-stable labelled internal standard and mixed well. A HybridSPE precipitation plate (50 mg/96 wells, Supelco Analytical, Munich, Germany) was used to directly load and elute (under slight vacuum) the fortified samples into a clean collection plate. Samples were dried before reconstitution with 100 μL of 20/80 (v/v) acetonitrile/water, and injected for LC-MS/MS analysis. A Halo C8 (Wilmington, DE, USA; 2.7 μm, 2.1 × 30 mm) was used on an Agilent 1290 Infinity UPLC pump (Agilent Technologies, Santa Clara, CA) to carry out the separation. An isocratic condition with 25/75/0.1 (v/v/v) acetonitrile/water/98% formic acid was used as the mobile phase. The flow rate was set to be 0.6 mL/min. An MPS 3 C ([…] Ruhr, Germany) autosampler was used to introduce samples onto the UPLC system. An API 4000 mass spectrometer (Applied Biosystems, Foster City, CA) was used in the multiple reactions monitoring mode for the detection and quantitation of analyte. Descriptive statistics were used for demographic variables. The numbers and percentages of patients with treatment-emergent AEs (TEAEs) were tabulated using the Medical Dictionary for Regulatory Activities version 16.0 system organ class and preferred term, and further classified according to CTCAE version 4.0 criteria. The safety data set included all patients who received one or more doses of ilorasertib. The pharmacokinetic data set included all patients who received one or more doses of ilorasertib and had one or more pharmacokinetic samples. Values for pharmacokinetic parameters were determined using non-compartmental methods, with data analysed separately for each arm. A repeated measures analysis was performed for Tmax and dose-normalised Cmax, AUCt, and AUC∞. The model included random effects for patient and fixed effects for dose level, day, and the interaction of dose level and day. To assess effects of exposure on pharmacodynamic biomarkers, Cmax was employed as the directly measured marker of exposure for the rapid changes in DBP and PlGF pre-steady-state, while AUC∞ reflected exposure variability at the time of post-multiple-dose skin biopsy. Descriptive statistics were used to summarise ECOG performance status. The efficacy data set included all patients who received one or more doses of ilorasertib.

[1] = Arm II PO BID 40 mg, day 1, N=2, mean (individual)
[2] = Arm II PO BID 40 mg, day 15, N=3
[3] = Arm II PO BID 60 mg, day 1, N=3
[4] = Arm II PO BID 60 mg, day 15, N=1
[5] = Arm II PO BID 60 mg, day 15, N=3
[6] = Arm II PO BID 90 mg, day 1, N=2, mean (individual)
[7] = Arm II PO BID 90 mg, day 1, N=3
[8] = Arm II PO BID 90 mg, day 15, N=2, mean (individual)
[9] = Arm II PO BID 90 mg, day 15, N=3
[10] = Arm II PO BID 130 mg, day 1, N=3
[11] = Arm II PO BID 130 mg, day 1, N=4
[12] = Arm II PO BID 130 mg, day 15, N=1
[13] = Arm II PO BID 130 mg, day 15, N=3
[14] = Arm II PO BID 190 mg, day 1, N=4
[15] = Arm II PO BID 190 mg, day 1, N=7
[16] = Arm II PO BID 190 mg, day 15, N=2, mean (individual)
[17] = Arm II PO BID 190 mg, day 15, N=5
[18] = Arm II PO BID 230 mg, day 1, N=2, mean (individual)
[19] = Arm II PO BID 230 mg, day 1, N=3
[20] = Arm II PO BID 230 mg, day 15, N=1
[21] = Arm II PO BID 230 mg, day 15, N=4
[22] = Arm II PO BID 340 mg, day 1, N=1
[23] = Arm II PO BID 340 mg, day 1, N=3
[24] = Arm II PO BID 340 mg, day 15, N=1
[25] = Arm II PO BID all doses, day 1, N=14
[26] = Arm II PO BID all doses, day 1, N=26
[27] = Arm II PO BID all doses, day 15, N=7
[28] = Arm II PO BID all doses, day 15, N=22

Structure (SMILES): Nc1ncc(-c2cnn(CCO)c2)c2scc(-c3ccc(NC(=O)Nc4cccc(F)c4)cc3)c12 [ilorasertib, Ilorasertib]
- AUC∞/dose [1]: 49.9 (35.6, 64.1)^b ng•h/mL/mg
- CL/F [1]: 21.8 (28.1, 15.6)^b L/h
- AUCt/dose (Arm II PO BID 40 mg, day 1, N=3): 46.5 ± 20.5 ng·h/mL/mg
- AUCt/dose [2]: 46.9 ± 25.6 ng·h/mL/mg
- Cmax/dose [2]: 2.4 ± 1.3 ng/mL/mg
- AUCt/dose [3]: 45.4 ± 12.2 ng·h/mL/mg
- Cmax/dose [3]: 3.2 ± 1.2 ng/mL/mg
- AUC∞/dose [4]: 45.3^b ng•h/mL/mg
- CL/F [4]: 22.1^b L/h
- AUCt/dose [5]: 24.3 ± 5.9 ng·h/mL/mg
- Cmax/dose [5]: 1.9 ± 0.47 ng/mL/mg
- AUC∞/dose [6]: 22.4 (14.1, 30.6)^b ng•h/mL/mg
- CL/F [6]: 51.7 (70.7, 32.6)^b L/h
- AUCt/dose [7]: 21.8 ± 8.5 ng·h/mL/mg
- Cmax [7]: 300 ± 100 ng/mL
- Cmax/dose [7]: 1.7 ± 0.6 ng/mL/mg
- AUC∞/dose [8]: 29.6 (41.1, 18.1)^c ng•h/mL/mg
- CL/F [8]: 39.8 (24.3, 55.2)^c L/h
- t1/2 (harmonic mean) [8]: 16.2 (23.4, 12.4)^c h
- AUCt/dose [9]: 22.5 ± 8.4 ng·h/mL/mg
- Cmax/dose [9]: 1.8 ± 0.54 ng/mL/mg
- AUC∞/dose [10]: 25.1 ± 17.2^c ng•h/mL/mg
- CL/F [10]: 51.5 ± 25.9^c L/h
- AUCt/dose [11]: 19.5 ± 12.2 ng·h/mL/mg
- Cmax/dose [11]: 2.3 ± 1.5 ng/mL/mg
- AUC∞/dose [12]: 15.2^b ng•h/mL/mg
- CL/F [12]: 65.7^b L/h
- AUCt/dose [13]: 9.2 ± 5.0 ng·h/mL/mg
- Cmax/dose [13]: 1.0 ± 1.1 ng/mL/mg
- AUC∞/dose [14]: 46.8 ± 29.7^d ng•h/mL/mg
- CL/F [14]: 29.6 ± 17.9^d L/h
- t1/2 (harmonic mean) [14]: 13.7 ± 9.0^d h
- AUCt [15]: 8100 ± 4440 ng·h/mL
- AUCt/dose [15]: 21.3 ± 11.7 ng·h/mL/mg
- Cmax/dose [15]: 1.4 ± 0.8 ng/mL/mg
- AUC∞/dose [16]: 28.0 (20.9, 35.2)^c ng•h/mL/mg
- CL/F [16]: 38.1 (47.8, 28.4)^c L/h
- AUCt/dose [17]: 17.6 ± 13.7 ng·h/mL/mg
- Cmax/dose [17]: 1.7 ± 1.0 ng/mL/mg
- AUC∞/dose [18]: 19.9 (18.1, 21.7)^b ng•h/mL/mg
- CL/F [18]: 50.8 (55.4, 46.1)^b L/h
- AUCt/dose [19]: 21.9 ± 7.9 ng·h/mL/mg
- Cmax/dose [19]: 1.5 ± 0.5 ng/mL/mg
- AUC∞/dose [20]: 28.2^b ng•h/mL/mg
- CL/F [20]: 35.5^b L/h
- AUCt/dose [21]: 24.4 ± 9.4 ng·h/mL/mg
- Cmax/dose [21]: 1.7 ± 1.0 ng/mL/mg
- AUC∞/dose [22]: 145^e ng•h/mL/mg
- CL/F [22]: 6.9^e L/h
- AUCt/dose [23]: 57.8 ± 21.8 ng·h/mL/mg
- Cmax/dose [23]: 3.0 ± 1.3 ng/mL/mg
- AUCt/dose [24]: 23.0 ng·h/mL/mg
- Cmax/dose [24]: 1.1 ng/mL/mg
- AUC∞/dose [25]: 42.3 ± 36.5^f ng•h/mL/mg
- CL/F [25]: 37.7 ± 21.8^f L/h
- t1/2 (harmonic mean) [25]: 13.0 ± 6.2^f h
- AUCt/dose [26]: 31.1 ± 18.8 ng·h/mL/mg
- Cmax/dose [26]: 2.2 ± 1.2 ng/mL/mg
- AUC∞/dose [27]: 29.1 ± 11.7^d ng•h/mL/mg
- CL/F [27]: 39.9 ± 16.7^d L/h
- t1/2 (harmonic mean) [27]: 9.9 ± 3.7^d h
- AUCt/dose [28]: 23.5 ± 15.5 ng·h/mL/mg
- Cmax/dose [28]: 1.7 ± 0.9 ng/mL/mg
